# Test system: IgE
# Assay: Secondary antigen-specific IgE response to TNP-KLH on alum
# Assay type: in vivo, mouse (Balb/c female)
# Conditions: 20 μg IP 3x daily days 24 and 25
# Description: ELISA (enzyme linked immunosorbant assay) measurements of IgE are as follows. About 5 μg of B1E3 antibody in 100 μl borate buffered saline (pH8.5) is added to wells of a NuncImmulon II 96 well plate (DiRuscio & Assoc., St. Louis, Mo.) at 37° C. for 90 minutes. The non-bound antibody is removed by flicking the plate. Unreacted sites on the plastic plate are blocked by adding about 200 μl of a 2% solution of newborn bovine serum (NBS) in PBS at 37° C. for 60 minutes. The standard IgE (or an unknown murine serum sample) is diluted to between about 4 ng/ml-256 ng/ml in Hanks-HS (20 mM Hepes, 2% NBS in Hanks Balanced Salt Solution, Gibco, Grand Island, N.Y.) or to 1/200 to 1/1000 in Hanks-HS respectively. 100 μl of standard (or unknown dilutions) are added in triplicate to the wells of the plate and allowed to absorb to B1E3 antibody at about 37° C. for 2-4 hours. The solution is removed by flicking the plate and each well is washed with about 0.5 ml 0.05% Tween 20-PBS 5 times. About 100 μl of biotinylated R1E4, called the primary antibody, diluted to 200 ng/ml is added to all wells and incubated at about 4° C. overnight. The solution is removed by flicking the plate and washed 5 times as described above. The developing reagent (Avidin and biotin-horse radish peroxidase) is incubated in 2% NBS in PBS at ambient temperature for 30 minutes, according to manufacturer's specifications (Vector Laboratories, Burlingame, Calif.). About 100 μl of developing reagent is added to each well and incubated at ambient temperature for 30 minutes. Colorimetric substrate for the developing reagent (ABTS peroxidase substrate system, KPL, Gaithersburg, Md.) is prepared by mixing equal volumes of solutions A and B and incubating at ambient temperature for 60 minutes. The developing reagent solution is removed by flicking the plate and washed 5 times as described above. About 100 μl of the mixture of substrates is added to each well and incubated at ambient temperature for 60 minutes. The optical density of each well is determined on a BioTek ELISA reader (Biotek Instruments, Inc., Burlington, Vermont) and the absorbance data transferred electronically to a DEC VAX mainframe computer. A standard curve is fitted to the IgE standard optical densities using straight line, linear regression statistical fits. IgE in the unknown serum samples is determined by comparing the optical density of the unknown to the standard curve and multiplying that number by the dilution of serum used in the assay.
# Stimulation of a secondary antigen-specific IgE response in mouse with haptenated antigen absorbed on alum is inhibited by (±) methyl 11α,16-dihydroxy-16-methyl-9-oxoprosta-5Z,13E-dien-1-oate. Three groups of 7 Balb/c female mice were treated as follows. […]
structure (smiles),measurement,setting,value
"CCCCC(C)(O)C/C=C/[C@H]1[C@H](O)CC(=O)[C@@H]1C/C=C\CCCC(=O)OC (mixture of isomers) [(±) methyl 11α,16-dihydroxy-16-methyl-9-oxoprosta-5Z,13E-dien-1-oate]",secondary IgE response,,inhibited from the synthesis of a secondary IgE response
same,IgE ± SD,"day 28, p < .02 (boosted control 28,568)","14,448 ± 4926 ng/ml"
same,IgE ± SD,"day 30, p < .016 (boosted control 22,564)",7564 ± 1528 ng/mL
same,IgE ± SD,day -1 baseline before treatment,1487 ± 138 ng/mL
